Structures are written as SMILES.

Chain of Cytochrome P450 3A4 (P08684 whole entry, canonical isoform): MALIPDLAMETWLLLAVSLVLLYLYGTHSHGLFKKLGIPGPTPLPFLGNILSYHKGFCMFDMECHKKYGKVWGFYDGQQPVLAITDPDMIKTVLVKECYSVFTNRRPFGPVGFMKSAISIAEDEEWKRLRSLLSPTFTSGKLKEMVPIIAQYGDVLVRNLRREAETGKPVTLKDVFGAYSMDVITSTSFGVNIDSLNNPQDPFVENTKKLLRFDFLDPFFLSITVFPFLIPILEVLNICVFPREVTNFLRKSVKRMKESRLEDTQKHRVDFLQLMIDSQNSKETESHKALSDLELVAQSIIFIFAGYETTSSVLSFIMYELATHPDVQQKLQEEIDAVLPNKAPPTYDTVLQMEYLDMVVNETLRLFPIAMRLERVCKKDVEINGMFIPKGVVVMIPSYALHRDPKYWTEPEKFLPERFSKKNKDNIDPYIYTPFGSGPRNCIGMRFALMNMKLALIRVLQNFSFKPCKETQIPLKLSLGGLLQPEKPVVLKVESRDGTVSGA
Chain of hERG (KCNH2) (Q12809 whole entry): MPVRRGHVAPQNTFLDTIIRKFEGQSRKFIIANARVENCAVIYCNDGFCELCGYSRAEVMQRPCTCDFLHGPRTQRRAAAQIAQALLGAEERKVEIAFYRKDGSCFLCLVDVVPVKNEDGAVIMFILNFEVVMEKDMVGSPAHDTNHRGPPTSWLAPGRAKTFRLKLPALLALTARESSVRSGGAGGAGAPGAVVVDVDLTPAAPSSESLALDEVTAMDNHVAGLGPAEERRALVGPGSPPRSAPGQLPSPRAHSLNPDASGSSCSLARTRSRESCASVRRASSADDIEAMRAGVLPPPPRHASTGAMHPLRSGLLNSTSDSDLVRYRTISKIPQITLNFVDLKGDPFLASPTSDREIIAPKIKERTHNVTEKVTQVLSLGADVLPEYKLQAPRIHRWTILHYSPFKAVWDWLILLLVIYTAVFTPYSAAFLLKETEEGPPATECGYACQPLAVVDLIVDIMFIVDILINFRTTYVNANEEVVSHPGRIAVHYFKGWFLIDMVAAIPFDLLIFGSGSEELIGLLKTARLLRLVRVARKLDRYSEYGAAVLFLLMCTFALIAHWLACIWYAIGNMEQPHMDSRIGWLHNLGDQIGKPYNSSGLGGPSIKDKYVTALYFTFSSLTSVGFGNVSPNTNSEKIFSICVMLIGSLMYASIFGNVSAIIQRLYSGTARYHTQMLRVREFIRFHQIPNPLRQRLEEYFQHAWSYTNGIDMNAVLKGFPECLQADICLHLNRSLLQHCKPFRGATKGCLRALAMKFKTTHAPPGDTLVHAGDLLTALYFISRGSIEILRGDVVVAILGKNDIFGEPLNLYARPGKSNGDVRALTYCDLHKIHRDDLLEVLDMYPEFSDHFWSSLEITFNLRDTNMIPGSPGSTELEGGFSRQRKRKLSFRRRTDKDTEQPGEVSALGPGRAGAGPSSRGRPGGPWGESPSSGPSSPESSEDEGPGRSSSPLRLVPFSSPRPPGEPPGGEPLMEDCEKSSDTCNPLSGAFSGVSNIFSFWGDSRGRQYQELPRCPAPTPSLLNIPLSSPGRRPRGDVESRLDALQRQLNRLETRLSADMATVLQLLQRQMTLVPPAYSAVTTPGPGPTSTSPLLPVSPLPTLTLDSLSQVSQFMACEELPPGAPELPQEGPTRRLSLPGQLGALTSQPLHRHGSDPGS

One series addresses T1, Muscarinic acetylcholine receptor M4 (Homo sapiens, UniProt P08173).
T1 sequence (P08173 whole entry): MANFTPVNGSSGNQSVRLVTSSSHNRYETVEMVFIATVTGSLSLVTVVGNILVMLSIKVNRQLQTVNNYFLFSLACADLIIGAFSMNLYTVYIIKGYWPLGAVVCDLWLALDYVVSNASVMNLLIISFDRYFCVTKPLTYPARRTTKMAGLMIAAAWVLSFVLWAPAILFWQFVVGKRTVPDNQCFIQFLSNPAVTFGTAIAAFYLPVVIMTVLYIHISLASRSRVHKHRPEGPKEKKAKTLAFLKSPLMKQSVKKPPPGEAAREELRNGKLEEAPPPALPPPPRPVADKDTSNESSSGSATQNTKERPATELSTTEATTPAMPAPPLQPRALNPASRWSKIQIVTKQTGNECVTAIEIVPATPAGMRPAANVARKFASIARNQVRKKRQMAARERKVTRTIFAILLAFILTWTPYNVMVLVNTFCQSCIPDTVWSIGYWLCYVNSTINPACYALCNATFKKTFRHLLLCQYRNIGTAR
Put plainly: Inhibition of human muscarinic acetylcholine M4 receptor expressed in CHO cells co-expressing Gqi5 in the presence of acetylcholine at EC80 concentration by calcium mobilization assay. Format: functional, cell-based.
Details: not given
In general terms: A change in cytosolic calcium serves as a functional read-out for many receptors and channels.
With `Cn1cc2cc(-c3ccc(NC[C@@H]4CC45CCN(CC4CCOCC4)CC5)nn3)ccc2n1`, the IC50 – broadly, the midpoint of a concentration-inhibition curve – came to 0.13 µM.
On the same count and under the same terms, for `Fc1ccc(Cl)c(-c2ccc(NCC3CC34CCN(CC3CCCCC3)CC4)nn2)c1` (stereo not drawn) the value was 0.018 µM; for `Fc1ccc(-c2ccc(NC[C@@H]3CC34CCN(CC3CCOCC3)CC4)nn2)cc1`, 0.28 µM; for `Fc1ccc(Cl)c(-c2ccc(NC[C@H]3CC34CCN(CC3CCCCC3)CC4)nn2)c1`, 0.028 µM.
On the same count and under the same terms, to `[2H]C([2H])(C1CCOCC1)N1CCC2(CC1)C[C@H]2CNc1ccc(-c2cc(F)cc(F)c2F)nn1` belongs 0.042 µM; to `Fc1ccc(F)c(-c2ccc(NC[C@@H]3CC34CCN(CC3CCOCC3)CC4)nn2)c1`, 0.052 µM.
Still for that read-out and setting: to `Fc1ccc(Cl)c(-c2ccc(NC[C@@H]3CC34CCN(CC3CCOCC3)CC4)nn2)c1` belongs 0.0018 µM.

For the next series, the target named is T2, Muscarinic acetylcholine receptor M4 (Homo sapiens) (UniProt P08173).
T2 sequence (whole entry): T1 sequence (P08173 whole entry)
Put plainly: Antagonist activity at human muscarinic acetylcholine M4 receptor expressed in CHO cells co-expressing Gqi5 assessed as minimal acetylcholine response by calcium mobilization assay relative to control. Further details: scale not given: the % may be the effect or the level left. Type of series: functional, cell-based. Conditions: filed as antagonist.
Take `Fc1ccc(Cl)c(-c2ccc(NCC3CC4(CCN(CC5CCOCC5)CC4)C3)nn2)c1`: the Activity was 4.7%.
The same measure, in the same setting: for `Cn1cc2cc(-c3ccc(NC[C@@H]4CC45CCN(CC4CCOCC4)CC5)nn3)ccc2n1` the value was 3.6%.
For the molecule `Fc1ccc(-c2ccc(NC[C@@H]3CC34CCN(CC3CCOCC3)CC4)nn2)cc1`, the Activity turned out to be 4.1%.
Turning to `Fc1ccc(Cl)c(-c2ccc(NC[C@H]3CC34CCN(CC3CCCCC3)CC4)nn2)c1`, the Activity came out at 3.7%.
On the same count and under the same terms, for `Fc1ccc(F)c(-c2ccc(NC[C@@H]3CC34CCN(CC3CCOCC3)CC4)nn2)c1` the value was 3.5%; for `Fc1ccc(Cl)c(-c2ccc(NC[C@@H]3CC34CCN(CC3CCOCC3)CC4)nn2)c1`, 4.5%.

For another series, the target named is T3, Muscarinic acetylcholine receptor M4 (Rattus norvegicus, UniProt P08485).
T3 sequence (P08485 whole entry): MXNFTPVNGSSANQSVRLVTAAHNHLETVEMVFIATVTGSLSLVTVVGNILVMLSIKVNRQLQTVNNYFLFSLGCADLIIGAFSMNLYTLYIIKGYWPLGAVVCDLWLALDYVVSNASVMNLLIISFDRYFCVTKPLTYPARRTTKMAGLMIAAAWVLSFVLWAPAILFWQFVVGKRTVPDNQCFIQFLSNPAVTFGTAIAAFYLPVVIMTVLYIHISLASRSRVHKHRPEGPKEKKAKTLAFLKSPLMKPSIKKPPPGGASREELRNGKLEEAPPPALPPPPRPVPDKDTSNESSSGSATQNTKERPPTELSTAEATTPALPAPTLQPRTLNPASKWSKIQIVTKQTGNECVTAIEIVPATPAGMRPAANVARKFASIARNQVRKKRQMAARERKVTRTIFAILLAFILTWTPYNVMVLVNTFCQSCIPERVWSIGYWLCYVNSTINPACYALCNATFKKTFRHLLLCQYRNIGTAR
The series is described as follows: Inhibition of rat muscarinic acetylcholine M4 receptor expressed in CHO cells co-expressing Gqi5 in the presence of acetylcholine at EC80 concentration by calcium mobilization assay. Format: functional, cell-based.
Details: not given
Take `Fc1ccc(Cl)c(-c2ccc(NC[C@H]3CC34CCN(CC3CCCCC3)CC4)nn2)c1`: the IC50 turned out to be 0.53 µM.

Another series deals with T4, Muscarinic acetylcholine receptor M4 (Rattus norvegicus) (UniProt P08485).
T4 sequence (whole entry): T3 sequence (P08485 whole entry)
The series is described as follows: Antagonist activity at rat muscarinic acetylcholine M4 receptor expressed in CHO cells co-expressing Gqi5 assessed as minimal acetylcholine response by calcium mobilization assay relative to control. Type of series: functional, cell-based. Also on record: scale not given: the % may be the effect or the level left. Particulars: filed as antagonist.
For the molecule `Fc1ccc(Cl)c(-c2ccc(NC[C@H]3CC34CCN(CC3CCCCC3)CC4)nn2)c1`, the Activity was determined as 4.4%.

The target of another series is T5, Muscarinic acetylcholine receptor M2 (Homo sapiens, UniProt P08172).
T5 sequence (P08172 whole entry): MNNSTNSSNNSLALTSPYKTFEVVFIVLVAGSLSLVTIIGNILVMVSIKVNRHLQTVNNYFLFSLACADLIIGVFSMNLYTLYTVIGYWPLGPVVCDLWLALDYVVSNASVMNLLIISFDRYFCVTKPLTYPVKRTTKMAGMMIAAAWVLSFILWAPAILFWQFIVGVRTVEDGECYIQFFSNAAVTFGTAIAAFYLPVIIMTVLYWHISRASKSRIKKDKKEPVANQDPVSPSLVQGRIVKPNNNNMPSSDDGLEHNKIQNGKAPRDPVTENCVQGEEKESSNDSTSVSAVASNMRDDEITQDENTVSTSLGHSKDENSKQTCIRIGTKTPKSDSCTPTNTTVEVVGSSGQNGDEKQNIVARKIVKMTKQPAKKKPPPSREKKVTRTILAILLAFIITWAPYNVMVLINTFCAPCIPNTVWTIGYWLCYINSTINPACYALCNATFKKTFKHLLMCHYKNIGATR
Put plainly: Inhibition of human muscarinic acetylcholine M2 receptor expressed in CHO cells co-expressing Gqi5 in the presence of acetylcholine at EC80 concentration by calcium mobilization assay. Format: functional, cell-based.
Details: not given
`Cn1cc2cc(-c3ccc(NC[C@@H]4CC45CCN(CC4CCOCC4)CC5)nn3)ccc2n1`: the IC50 was found to be 6.2 µM.
Still for that read-out and setting: for `[2H]C([2H])(C1CCOCC1)N1CCC2(CC1)C[C@H]2CNc1ccc(-c2cc(F)cc(F)c2F)nn1` the value was 3 µM.
As for `Fc1ccc(F)c(-c2ccc(NC[C@@H]3CC34CCN(CC3CCOCC3)CC4)nn2)c1`, the IC50 turned out to be 2.6 µM.
Same read-out and setting: to `Fc1ccc(Cl)c(-c2ccc(NC[C@@H]3CC34CCN(CC3CCOCC3)CC4)nn2)c1` belongs 1.6 µM.

System in the next series: not listed separately
Put plainly: Selectivity ratio of IC50 for inhibition of human muscarinic acetylcholine M2 receptor to IC50 for inhibition of human muscarinic acetylcholine M4 receptor expressed in CHO cells co-expressing Gqi5 in the presence of acetylcholine at EC80 concentration by calcium mobilization assay.
Details: not given
Type of series: cell-based.
On to `Cn1cc2cc(-c3ccc(NC[C@@H]4CC45CCN(CC4CCOCC4)CC5)nn3)ccc2n1`, for which the Ratio IC50 turned out to be 50.
On the same count and under the same terms, for `Fc1ccc(F)c(-c2ccc(NC[C@@H]3CC34CCN(CC3CCOCC3)CC4)nn2)c1` the value was 60.
As to `Fc1ccc(Cl)c(-c2ccc(NC[C@@H]3CC34CCN(CC3CCOCC3)CC4)nn2)c1`, the Ratio IC50 amounted to 900.

A further series addresses T6, Cytochrome P450 1A2 (Homo sapiens, UniProt P05177).
T6 sequence (P05177 whole entry): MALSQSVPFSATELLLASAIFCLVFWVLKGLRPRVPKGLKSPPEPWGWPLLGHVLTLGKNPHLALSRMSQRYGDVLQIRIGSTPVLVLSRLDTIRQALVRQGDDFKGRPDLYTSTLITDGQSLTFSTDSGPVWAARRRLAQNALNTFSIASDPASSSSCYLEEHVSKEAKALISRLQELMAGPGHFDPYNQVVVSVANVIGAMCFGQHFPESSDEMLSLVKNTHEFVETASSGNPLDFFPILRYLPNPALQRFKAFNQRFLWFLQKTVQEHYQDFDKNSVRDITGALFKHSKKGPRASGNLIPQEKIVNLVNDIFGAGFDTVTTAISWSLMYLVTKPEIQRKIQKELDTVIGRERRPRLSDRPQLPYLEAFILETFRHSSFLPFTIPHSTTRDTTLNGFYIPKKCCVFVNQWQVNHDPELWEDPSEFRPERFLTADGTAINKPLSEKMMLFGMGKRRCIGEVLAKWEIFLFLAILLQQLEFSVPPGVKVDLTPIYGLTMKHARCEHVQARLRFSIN
Put plainly: Inhibition of CYP1A2 in human liver microsomes using cocktail of isoform-specific probe substrate. Format: ADME, Microsome.
Details: not given
On the technique in general: Microsomes from liver hold many membrane-bound enzymes, among them those of drug oxidation.
For `Cn1cc2cc(-c3ccc(NC[C@@H]4CC45CCN(CC4CCOCC4)CC5)nn3)ccc2n1`, the IC50 is greater than 30 µM.
The same measure, in the same setting: for `[2H]C([2H])(C1CCOCC1)N1CCC2(CC1)C[C@H]2CNc1ccc(-c2cc(F)cc(F)c2F)nn1` the value was greater than 30 µM; for `Fc1ccc(F)c(-c2ccc(NC[C@@H]3CC34CCN(CC3CCOCC3)CC4)nn2)c1`, greater than 30 µM; for `Fc1ccc(Cl)c(-c2ccc(NC[C@@H]3CC34CCN(CC3CCOCC3)CC4)nn2)c1`, greater than 30 µM.

For another series, the target named is Cytochrome P450 2C9 (Homo sapiens, UniProt P11712). The series is described as follows: Inhibition of CYP2C9 in human liver microsomes using cocktail of isoform-specific probe substrate. Type of series: ADME, Microsome.
Chain of Cytochrome P450 2C9 (P11712 whole entry, canonical isoform): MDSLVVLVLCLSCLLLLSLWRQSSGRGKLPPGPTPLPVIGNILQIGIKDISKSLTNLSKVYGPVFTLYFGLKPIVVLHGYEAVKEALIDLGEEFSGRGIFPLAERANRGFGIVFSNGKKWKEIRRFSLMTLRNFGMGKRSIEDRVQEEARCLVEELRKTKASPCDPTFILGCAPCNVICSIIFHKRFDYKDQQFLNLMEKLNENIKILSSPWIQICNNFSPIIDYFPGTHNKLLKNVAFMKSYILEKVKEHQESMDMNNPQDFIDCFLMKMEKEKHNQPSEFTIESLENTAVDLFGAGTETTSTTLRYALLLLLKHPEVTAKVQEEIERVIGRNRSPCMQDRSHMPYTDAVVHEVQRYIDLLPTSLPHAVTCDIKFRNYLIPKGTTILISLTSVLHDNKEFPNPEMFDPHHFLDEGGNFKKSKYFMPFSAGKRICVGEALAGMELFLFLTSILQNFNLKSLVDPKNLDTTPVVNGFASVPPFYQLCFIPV
Details: not given
In the case of `Cn1cc2cc(-c3ccc(NC[C@@H]4CC45CCN(CC4CCOCC4)CC5)nn3)ccc2n1`, the IC50 was greater than 30 µM.
`[2H]C([2H])(C1CCOCC1)N1CCC2(CC1)C[C@H]2CNc1ccc(-c2cc(F)cc(F)c2F)nn1` gave an IC50 greater than 30 µM.
The same measure, in the same setting: for `Fc1ccc(F)c(-c2ccc(NC[C@@H]3CC34CCN(CC3CCOCC3)CC4)nn2)c1` the value was greater than 30 µM.
Same read-out and setting: to `Fc1ccc(Cl)c(-c2ccc(NC[C@@H]3CC34CCN(CC3CCOCC3)CC4)nn2)c1` belongs greater than 30 µM.

In another series the target is Cytochrome P450 2D6 (Homo sapiens, UniProt P10635). Put plainly: Inhibition of CYP2D6 in human liver microsomes using cocktail of isoform-specific probe substrate. Format: ADME, Microsome.
Chain of Cytochrome P450 2D6 (P10635 whole entry, canonical isoform): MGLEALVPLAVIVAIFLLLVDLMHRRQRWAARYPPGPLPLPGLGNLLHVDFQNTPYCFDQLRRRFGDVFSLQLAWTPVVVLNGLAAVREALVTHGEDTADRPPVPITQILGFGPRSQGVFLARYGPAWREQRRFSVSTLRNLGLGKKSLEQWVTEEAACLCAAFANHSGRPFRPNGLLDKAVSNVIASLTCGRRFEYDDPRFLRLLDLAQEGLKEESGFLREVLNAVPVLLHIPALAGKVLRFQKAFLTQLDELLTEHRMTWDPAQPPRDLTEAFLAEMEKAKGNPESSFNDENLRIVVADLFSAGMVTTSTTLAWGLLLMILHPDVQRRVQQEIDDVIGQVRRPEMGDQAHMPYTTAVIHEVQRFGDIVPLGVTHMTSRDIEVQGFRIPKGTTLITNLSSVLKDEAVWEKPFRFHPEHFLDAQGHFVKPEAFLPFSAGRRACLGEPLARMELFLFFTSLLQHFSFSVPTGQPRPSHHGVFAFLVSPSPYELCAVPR
Details: not given
In turn, `Cn1cc2cc(-c3ccc(NC[C@@H]4CC45CCN(CC4CCOCC4)CC5)nn3)ccc2n1` came in with an IC50 of 19.9 µM.
`[2H]C([2H])(C1CCOCC1)N1CCC2(CC1)C[C@H]2CNc1ccc(-c2cc(F)cc(F)c2F)nn1` displayed an IC50 greater than 30 µM.
Still for that read-out and setting: to `Fc1ccc(F)c(-c2ccc(NC[C@@H]3CC34CCN(CC3CCOCC3)CC4)nn2)c1` belongs 1.9 µM; to `Fc1ccc(Cl)c(-c2ccc(NC[C@@H]3CC34CCN(CC3CCOCC3)CC4)nn2)c1`, 5.7 µM.

A further series has as its target Cytochrome P450 3A4 (Homo sapiens, UniProt P08684). The series is described as follows: Inhibition of CYP3A4 in human liver microsomes using cocktail of isoform-specific probe substrate. Type of series: ADME, Microsome.
Details: not given
The molecule `Cn1cc2cc(-c3ccc(NC[C@@H]4CC45CCN(CC4CCOCC4)CC5)nn3)ccc2n1` registered an IC50 greater than 30 µM.
On the same count and under the same terms, for `[2H]C([2H])(C1CCOCC1)N1CCC2(CC1)C[C@H]2CNc1ccc(-c2cc(F)cc(F)c2F)nn1` the value was 27.6 µM; for `Fc1ccc(F)c(-c2ccc(NC[C@@H]3CC34CCN(CC3CCOCC3)CC4)nn2)c1`, 17 µM.
Still for that read-out and setting: to `Fc1ccc(Cl)c(-c2ccc(NC[C@@H]3CC34CCN(CC3CCOCC3)CC4)nn2)c1` belongs greater than 30 µM.

System in the next series: not listed separately
Put plainly: Intrinsic clearance in human liver microsomes. Type of series: ADME, Microsome. Conditions: read-out: CLH.
For the molecule `Cn1cc2cc(-c3ccc(NC[C@@H]4CC45CCN(CC4CCOCC4)CC5)nn3)ccc2n1`, the predicted hepatic clearance is 5.9 mL/min/kg.
The same measure, in the same setting: for `[2H]C([2H])(C1CCOCC1)N1CCC2(CC1)C[C@H]2CNc1ccc(-c2cc(F)cc(F)c2F)nn1` the value was 11 mL/min/kg.
On the same count and under the same terms, to `Fc1ccc(F)c(-c2ccc(NC[C@@H]3CC34CCN(CC3CCOCC3)CC4)nn2)c1` belongs 10 mL/min/kg; to `Fc1ccc(Cl)c(-c2ccc(NC[C@@H]3CC34CCN(CC3CCOCC3)CC4)nn2)c1`, 15 mL/min/kg.

The next series has as its target hERG (KCNH2) (Homo sapiens, UniProt Q12809). Put plainly: Inhibition of hERG at 10 uM by patch clamp method relative to control.
Details: not given
Type of series: toxicity. (Block of hERG is tested as a sign of cardiac risk.)
Consider `[2H]C([2H])(C1CCOCC1)N1CCC2(CC1)C[C@H]2CNc1ccc(-c2cc(F)cc(F)c2F)nn1`, for which the inhibition (as a rule, the drop in the measured response relative to a control, in per cent) at 10 µM stood at 98%.

The values are drawn from ChEMBL document CHEMBL5131409, “Synthesis and characterization of chiral 6-azaspiro[2.5]octanes as potent and selective antagonists of the M4 muscarinic acetylcholine receptor” (Bioorg Med Chem Lett, 2022).
